The text below walks through data of a melting point compilation (Tetko et al.; mined from patent text by program, amines drawn as free bases though some values may be those of a salt).

A word on the melting point: it is the temperature of the solid-liquid transition.

Consider `C#CCN(CC#C)c1ccc(Cl)c(Cl)c1`, for which the melting point is 48 to 50 °C. In the case of `Cc1ccccc1C1c2cc(NC(=O)CC(C)(C)C)c(C)c(C)c2OC1(C)C` (centres undefined), the melting point lay in the range of 161 to 162 °C. The result for `O=c1[nH]nc2n1C=Cc1ccccc1C2c1ccccc1` (centres undefined) reads 258 to 260 °C; that for `CN1CCC(c2cc3cc(C4(O)CCCCC4)ccc3o2)CC1`, 155 to 157 °C; that for `Cc1sc(-c2cccs2)nc1O`, 152 to 153 °C.

For the molecule `COC(=O)c1ccc(OC)c2c(C(F)(F)F)c(OC)ccc12`, the melting point is 120 to 123 °C. The result for `CSc1ccc(C(=O)CBr)c(F)c1` reads 55 to 59 °C. The same measure for `Cn1nccc1-c1ccc(-c2cnc3[nH]cc(C(=O)C(C)(C)C)c3n2)cc1`: 257 to 258 °C. The same measure for `O=C1c2ccccc2C(=O)N1CC1CCOC1` (centres undefined): 114 to 118 °C; for `O=C1NC(=O)C(CC#Cc2ccc(Cl)cc2)(Sc2nc3ccccc3o2)S1` (centres undefined): 137 to 139 °C; for `CNC(=O)c1ccc(O[C@H]2CC[C@@H](NC(=O)Nc3ccc(OC(F)(F)F)cc3)CC2)cc1`: 207 to 208 °C.

As to `NS(=O)c1ncnc2c1ncn2C1OC(CO)C(O)C1O` (centres undefined), the melting point is over 120 °C. The result for `O=[N+]([O-])c1ccc(-c2nc[nH]c2-c2ccc([N+](=O)[O-])cc2)cc1` reads 294 °C; that for `O=C(c1cccnc1)N1CCC(c2ccccc2[N+](=O)[O-])=N1`, 123 to 125 °C. The result for `Cc1nc(NC2CCCC2O)c2ncn(C3OC(CO)C(O)C3O)c2n1` (centres undefined) reads 188 to 192 °C; that for `Cc1cc(Nc2ccc(Cl)c(Cl)c2)nc(-n2nc(C)cc2C)n1`, 135 to 138 °C. `CCC(O)(CC(=O)OC(C)(C)C)c1cc[nH]c(=O)c1` (centres undefined) gave a melting point of 167 °C.

Consider `CC1(C)C=C(O)C(=O)C(C)(C)C1`, for which the melting point is 85 to 86 °C.

The molecule `CC(=O)Oc1cccc(C(Br)C(Br)c2ccccc2)c1` (centres undefined) registered a melting point of 156 to 157 °C. The result for `CC(C)Oc1ccc(-c2nn(Cc3oc4cccc(F)c4c(=O)c3-c3cccc(F)c3)c3ncnc(N)c23)cc1F` reads 156 to 159 °C; that for `OC1(c2ccccc2)CSC2=NCN(Cc3ccccc3)CN21` (centres undefined), 97 to 99 °C. The result for `CC1(O)c2ccccc2-c2[nH]nc(-c3ccccc3)c21` (centres undefined) reads 154 to 155 °C; that for `CC1(C)CC(=C(c2ccccc2)c2ccc(OCCOCCO)cc2)CC(C)(C)C1`, 116 to 117 °C. The result for `COc1cc(OCC(F)(F)C(F)F)nc(Oc2cc(C(F)(F)F)nn2C)c1` reads 73 to 74 °C; that for `COc1ccc2nc(C)n(-c3ccccc3)c2n1`, 114 to 116 °C. Turning to `C[C@@H](Nc1ncnc2[nH]c(-c3ccc(C(=O)O)cc3)cc12)c1ccccc1`, the melting point was over 350 °C. With `C[C@]1(COc2ccc(N3CCN(Cc4ccc(C(F)(F)F)cc4)CC3)cc2)Cn2cc([N+](=O)[O-])nc2O1`, the melting point fell in the range of 206 to 207 °C.

In the case of `CC(C)C[C@H](NC(=O)[C@@H](S)Cc1ccccc1)C(=O)O`, the melting point is 67 to 71 °C. The same measure for `c1ccc(CN(CCNC(c2ccccc2)c2ccccc2)Cc2ccccc2)cc1`: 89 to 91 °C. The same measure for `COC(=O)CCc1ccc(N2CCN(c3ccc(C(=N)NC(=O)OC)cc3)S2(=O)=O)cc1`: over 275 °C; for `O=c1c(-c2ccccc2)ccc2n1CCc1ccsc1-2`: 133 to 134 °C; for `N#Cc1cc(C#N)cc(Oc2c(C3CC3)nn(CCO)c2C2CC2)c1`: 115 to 117 °C. The result for `O=C(O)CCC(NC(=O)C=Cc1ccco1)C(=O)O` (centres undefined) reads 166 to 170 °C; that for `CC(=O)OC1C(=O)N(c2nnc(C(C)(C)C)s2)C(=O)N1C` (centres undefined), 168 °C.

Molecule `Cc1cnc(NC(=O)Nc2ccc(N3CCN(C(=O)Nc4ccc(OCCO)cc4C(F)(F)F)CC3)cc2)s1` gave a melting point of 118 to 120 °C. The same measure for `c1cnc2[nH]cc(CN3CCN(c4ccc5[nH]ccc5c4)CC3)c2c1`: 232 to 233 °C; for `CCOC(=O)c1c(-c2ccc(F)cc2)c2ccncc2c(=O)n1C`: 158 to 160 °C; for `COc1cc2c(cc1F)C(c1ccccc1Cl)=NC1=C(C)NNC1=N2`: 217 to 218 °C.

In turn, `COCc1cnc(NC(=O)C(Cc2ccc(F)cc2)c2ccc(S(C)(=O)=O)cc2)cn1` (centres undefined) displayed a melting point of 69 to 82.3 °C. Turning to `Cc1nc2c(N)nc3ccccc3c2n1Cc1ccccc1`, the melting point was 279 to 282 °C.

`CNc1ccccc1C(=O)CCl` came in with a melting point of 65 to 68 °C. The same measure for `Cc1csc2nc3cccc(C(F)(F)F)c3c(=O)n12`: 182 to 186 °C. In the case of `COc1ccc(Br)c(C=O)c1O`, the melting point fell in the range of 102 to 103 °C.

`C=CCc1[nH]cc2c1-c1ccc(Cl)cc1C(c1ccccc1F)=NC2`: the melting point was in the range of 212 to 214 °C. The result for `COc1cc2c(cc1-c1cc(F)ccc1F)NC(=O)CC(c1cccc(C#N)c1)=N2` reads 251 °C; that for `CCOCc1cc(I)c(=O)[nH]c1C`, 220 to 222 °C. The result for `O=C1N=NN=C2N=CN=C12` reads 230 to 234 °C.

Take `Cc1nc(-c2ccc3c(=O)n(CC(C)C)c(CNC(=O)OC(C)(C)C)c(-c4ccccc4)c3c2)sc1C(=O)O`: the melting point lay within 184 to 186 °C. The result for `NC(=O)c1cc(-c2ccncc2)c[nH]c1=O` reads over 300 °C; that for `Nc1ccc2c(c1)CC(N1CCN(CCN3CCOC3=O)CC1)c1ccccc1S2` (centres undefined), 193 to 196 °C. The same measure for `CCOC(=O)CCC(C#N)(c1cccc(F)c1)N1CCOCC1` (centres undefined): 88 to 90 °C. Molecule `C=CCc1cc(C=CNC(=O)OC)ccc1OCC(O)CNC(C)C` (centres undefined) showed a melting point of 128 to 129 °C. The result for `Cc1oc(Cl)nc1-c1ccc(Cl)cc1Cl` reads 78 °C; that for `CCCCCCOc1cccc(N2CC(=O)NC(=O)N2)c1`, 161 to 163 °C. The result for `CN(C(=O)OC(C)(C)C)c1cc(Oc2ccc(-c3ccccc3)cc2)ccc1N` reads 122 to 123 °C; that for `Oc1ccc(-c2ccc(C(F)(F)F)cc2)cn1`, 178 to 182 °C; that for `NC(=O)C1COCCN1C1CC1` (centres undefined), 116 °C. The same measure for `CC(Oc1ccc2nc(NC(=O)NCCN3CCN(C(=O)OC(C)(C)C)CC3)sc2c1)c1c(Cl)ccc(F)c1Cl` (centres undefined): 87 °C; for `CN1C(=O)Cn2c(nn(Cc3ccccc3)c2=O)-c2cc(Cl)ccc21`: 120 to 122 °C; for `CCN1C(=O)Cc2cc(OC(=O)CCl)ccc21`: 53 to 57 °C. Take `CCC1(SC)CCC2C3CCC4=CC(=O)C=CC4(C)C3(F)C(O)CC21C` (centres undefined): the melting point lay in the range of 252 to 254 °C. The result for `Cc1oc(-c2ccc3ccccc3c2)nc1COc1ccc(COc2ncccc2CC(=O)O)cc1` reads 155 to 156 °C; that for `Cc1ccc(-c2cc3c(s2)CCCC(C(=O)Nc2ccc(CN(C)C4CCOCC4)cc2)=C3)cc1`, 201 to 203 °C; that for `CCCCCCCCCCCCNC(=O)c1cc(Br)c(OCCn2ncnn2)c(-c2cccc(C(F)(F)F)c2)c1`, 75.6 to 76.2 °C. Molecule `CCCc1nn(-c2ccc(C(F)(F)F)cn2)cc1CCCOc1c(CC(=O)O)cnn1C` came in with a melting point of 136 to 138 °C. In the case of `NS(=O)(=O)c1cccc(-c2cc(-c3nc(-c4ccc(Cl)cc4)cc(C(F)(F)F)n3)ccn2)c1`, the melting point was found to be 182 °C. The result for `O=C1CC2CCCCC2=NN1c1ccc(Cl)cc1F` (centres undefined) reads 110 to 112 °C. In turn, `CCN1CC(OCC2(C)CC2)(C(F)(F)F)c2cc(Cl)ccc2NC1=O` (centres undefined) displayed a melting point of 171 to 172 °C. The result for `CC(=O)OC1CSC(Oc2ccccc2-c2ccncc2)C(OC(C)=O)C1OC(C)=O` (centres undefined) reads 165 °C; that for `O=C1CCC(N2C(=O)c3cccc(CNC(=O)c4ccc(C(F)(F)F)c(F)c4)c3C2=O)C(=O)N1` (centres undefined), 165 to 167 °C. The same measure for `COc1cc2[nH]c(C(=O)OCc3ccccc3)cc2c(C)c1C`: 161 °C; for `CCCc1c(OCCCOc2ccccc2)ccc2c1OC(CCC(=O)O)(CCC(=O)O)CC2`: 130 to 132 °C; for `COc1ccc(OC(=O)CN2CCN(Cc3ccc(OC)c(OC)c3OC)CC2)cc1`: 68 to 71 °C. The result for `O=C(COCc1cccs1)C12CC3CC(CC(C3)C1)C2` reads 57.2 to 58.3 °C. Consider `COc1ccc(-n2nc(OC)cc2-c2ccc(OCCNC(N)=S)cc2)cc1`, for which the melting point worked out at 142 °C.

Regarding `COc1ccc(C(=O)Nc2c(-c3cc(Cl)ccc3O)c3cc(C(F)(F)F)ccc3[nH]c2=O)cc1`, the melting point lay in the range of 285 to 287 °C. The same measure for `Cc1c(C)c2c(c(C)c1N)C(c1ccc(Br)cc1)C(C)(C)O2` (single isomer, unassigned; (+)): 143 to 144 °C. `CCCCP(=O)(C(=O)c1c(OC)cccc1OC)C(=O)c1c(OC)cccc1OC` had a melting point of 151 to 152 °C. The result for `Cc1ccc(S(=O)(=O)OCC2(C)Cc3cc(Cl)cc(O)c3O2)cc1` (centres undefined) reads 135 to 137 °C.

The molecule `C#Cc1ccc(C#C)cc1` came in with a melting point of 91 to 92 °C. The result for `CCOC1COCC1Oc1cc(C(=O)Nc2c(Cl)cncc2Cl)ccc1OC` (centres undefined) reads 171 to 173 °C. The result for `Cc1nc2ccc3c(c2o1)OC(CN1CC=C(c2c[nH]c4ccc(Cl)cc24)CC1)CO3` (centres undefined) reads 144 to 145 °C. The result for `Cc1oc(-c2ccccc2)nc1COc1ccc(COc2ccc(CCC(=O)O)cc2)cc1` reads 177 to 178 °C. In the case of `CCOC(=O)CCNC(=O)NC1CCN(c2ccc(C=NNOC(=O)OCC)cc2)C1=O` (centres undefined), the melting point lay in the range of 198 to 201 °C. The result for `O=C(OCN1C(=O)CN(CCN2CC(=O)N(COC(=O)c3cccs3)C(=O)C2)CC1=O)c1cccs1` reads 158 to 160 °C; that for `COc1ccc(C#N)cc1C=O`, 115 to 118 °C; that for `C=CCSc1nnc(Cl)c2ccccc12`, 76 to 78 °C. The same measure for `CCc1cc2c(NC(C)c3ccccc3)ncnc2s1` (centres undefined): 141 °C; for `CS(=O)(=O)Nc1ccc(C(=O)O)cc1Oc1ccc(F)cc1F`: 167 to 169 °C.
